These results are taken from paper PMC8761912, “Cryptosporidium parvum Pyruvate Kinase Inhibitors With in vivo Anti-cryptosporidial Efficacy” (Frontiers in Microbiology, 2022).

Data set [1] has as its target recombinant CpPyK (rCpPyK) protein (Cryptosporidium parvum, UniProt Q5CSM7). Kind of data set: rCpPyK enzymatic activity inhibition assay (ATP detection, Cell Titer-Glo luminescence). Format: biochemical. How it is done:
The in vitro enzymatic activity of the rCpPyK protein was determined by quantitating the amount of ATP produced by the transfer of a phosphate group from phosphoenolpyruvate to adenosine diphosphate (ADP) in the presence of varying concentrations of the recombinant protein (Figure 1A). A typical assay contained 0.5 mM phosphoenolpyruvate, 0.6 mM ADP, 50 mM Tris buffer pH 7.5, 60 mM MgSO4, 100 mM KCl, and varying concentrations of rCpPyK incubated for 3 h at room temperature. The ATP generated was detected in a reaction volume of 50 μl in white opaque-walled 96 well plates by the luciferase-based Cell Titer-Glo 2.0 reagent (Promega) following the manufacturer’s instructions. The enzyme kinetics of rCpPyK were determined by using varying phosphoenolpyruvate (0–8 mM) and ADP (0–2 mM) concentrations in an enzymatic reaction catalyzed by a fixed concentration of the recombinant protein (6 ng/μl). In all assays, reaction mixtures without rCpPyK were included as negative controls. Three independent assays were performed for each experiment, and samples were run in triplicate. The luminescence generated was recorded using a multi-mode microplate reader (Spectra Max iD3; Molecular Devices, United States). GraphPad PRISM® v8 software was used to fit the Michaelis–Menten model directly to the substrate-velocity data to determine the enzymatic kinetic parameters for rCpPyK.
The Diversity Set VI chemical library (Supplementary Table 1) was obtained from the National Cancer Institute (NCI)/Developmental Therapeutics Program (DTP) Open Repository collection of chemical compounds.^1 Compounds were individually reconstituted in molecular biology grade dimethyl sulfoxide (DMSO) from Sigma-Aldrich and stored at −20°C. From the library, 1,424 compounds were screened in 96-well plates using the rCpPyK catalyzed enzyme assay to identify potential CpPyK inhibitors. The reactions were performed in 50 μl reaction volume containing 0.5 mM phosphoenolpyruvate, 0.6 mM ADP, 50 mM Tris buffer pH 7.5, 60 mM MgSO4, 100 mM KCl, and 6 ng/μl of rCpPyK protein with or without compound. The concentration of DMSO in all reaction mixtures was 1% (v/v). Control reactions without rCpPyK protein were included for background subtraction. Following 3 h of incubation at room temperature, an equal volume of the Cell Titer-Glo 2.0 reagent was added to each well, and the luminescence produced was recorded as relative luminescence units (RLU) after 10 min of incubation using a multi-mode microplate reader (Spectra Max iD3; Molecular Devices, United States). The mean percent inhibition (MPI) of rCpPyK activity by each compound was derived by dividing the difference in luminescence (RLU) between the compound-treated wells and the DMSO-treated wells by the luminescence of the DMSO-treated wells and multiplying the product by 100:
(1) MPI=[(MeanRLUDMSO-treated-MeanRLUCompound-treated)÷MeanRLUDMSO-treated]×100.
Half maximal inhibitory concentration (IC50) values were determined by applying a non-linear regression analysis curve fit to the mean dose-response data for varying concentrations of each compound using GraphPad PRISM® v8. Reactions were performed in triplicate and repeated at least thrice.
For orientation: Cellular ATP, detected with luciferase, serves as a proxy for viable cell number.

A short description of data set [2]: In vitro compound cytotoxicity assay (WST-1). Format: cell-based. To be noted: human, uninfected HCT-8 cells. On the procedure: Compounds were tested for cytotoxicity in human ileocecal colorectal adenocarcinoma cells [HCT-8 (HRT-18); ATCC® CCL-244™, CVCL_2478] by using the cell proliferation reagent WST-1 (Roche) according to the manufacturer’s protocol. The WST-1 assay is a quantitative colorimetric assay for measurement of metabolically active cells. This assay is based on the reduction of the tetrazolium salt (WST-1) by viable cells. About 5 × 10^4 HCT-8 cells were seeded per well in 96-well plates and grown overnight in 200 μl of RPMI-1640 medium (without phenol red) (Gibco) supplemented with 2.5 g/L of glucose, 1 mM sodium pyruvate, 1.5 g/L of sodium bicarbonate, 10% heat-inactivated FBS (Gibco), and 1 × Antibiotic-Antimycotic (Gibco) at 37°C with 5% CO2 in a humidified incubator. Upon reaching 80–90% confluency, cells were treated with the chemical compounds reconstituted in DMSO for 24 h. The volume of DMSO was kept below 1% of the total culture volume in all the wells to avoid DMSO cytotoxicity. Control wells received equivalent volumes of DMSO used in the reconstituted compounds. After 24 h of culture, 10 μl of the WST-1 reagent was added to each well, and the plates were incubated for 1 h at 37°C with 5% CO2 under dark conditions. The plates were shaken thoroughly and 150 μl of the medium from each well was transferred to a new clear flat-bottom black 96-well plate (Corning). Absorbance was read at a test wavelength of 440 nm and a reference wavelength of 690 nm using a multi-mode microplate reader (Spectra Max iD3; Molecular Devices, United States). The mean percent toxicity (MPT) of each compound was derived by dividing the difference in absorbance (OD) between the compound-treated cells and the DMSO-treated cells by the absorbance from the DMSO-treated cells and multiplying the product by 100:
(2) MPT=[(MeanODDMSO-treated-MeanODCompound-treated)÷MeanODDMSO-treated]×100.
The half maximal cytotoxic concentration (CC50) values were determined by using non-linear regression analysis in GraphPad PRISM® v8. Assays were performed in triplicate and repeated three times.
(In general: Tetrazolium assays rely on reduction of a dye to a coloured formazan, in cell work by metabolically active cells.)

Data set [3] in a line: Tolerability in uninfected mice, daily oral gavage. In kind it is in vivo. Conditions: 10 mg/kg daily oral administration, 8 days. On the procedure:
Eight weeks old male interferon-gamma knockout (IFN-γ KO) mice (B6.129S7-Ifng^TM1Ts/J) were purchased from The Jackson Laboratory, United States, and allowed to quarantine and acclimatize for 1 week before the commencement of experiments. Before the start of the infection assays in mice, the tolerability of each inhibitor was determined by daily oral gavage with varying dosages (0–10 mg/kg mouse bodyweight) in groups of mice (n = 3 mice per group) for 8 days. During this period, mice were monitored daily for any changes in physical and mental activity, feeding, body weight, body temperature, fur condition, and body posture. […] Mice were divided into infected and uninfected groups (n = 3 mice per group) and each individual mouse was housed in a separate cage lined with sterile gauze bedding. Each mouse from the infected group was infected by oral gavage administration of 10^4 C. parvum AUCP-1 isolate oocysts suspended in 50 μl of PBS. Beginning day 3 PI, groups of mice were orally treated with CpPyK inhibitors (at the specified doses), sham (100 μl of 5% DMSO in PBS), or 1,000 mg/kg paromomycin (in sterile water) once daily for a total of 8 days. Fecal pellets were collected daily in individual sterile 15 ml tubes, and submerged in an equivalent volume of PBS containing a cocktail of penicillin (100 units/ml), streptomycin (100 μg/ml), chloramphenicol (34 μg/ml), and amphotericin (0.25 μg/ml), and stored at 4°C until use. Three independent replicate infection assays were performed. Mice were sacrificed at day 11 PI, and 5 cm of the distal small intestine just anterior to the cecum was resected and submerged in 10% neutral buffered formalin and submitted for histopathological processing in the Comparative Biosciences Histology Laboratory at the University of Illinois at Urbana-Champaign. Briefly, intestinal tissues preserved in 10% neutral buffered formalin were washed in 70% ethanol, embedded in paraffin, and sectioned transversely at a thickness of 5 μm. Sections were stained with hematoxylin and eosin. The slides were imaged using a Zeiss microscope fitted with a color camera.

The mark [4] stands for this setting: 6 ng/μl rCpPyK, 3 h at room temperature, read-out: Enzyme inhibition IC50.

Where two headings read alike, the source gives them in different places.

A word on the IC50: it is the midpoint of a concentration-inhibition curve. The term CC50 denotes the concentration at which the toxic effect on the cells reaches its halfway point. A low value points to greater toxicity to the cells.

recombinant CpPyK (rCpPyK) protein, sequence (Q5CSM7 entry or part of it): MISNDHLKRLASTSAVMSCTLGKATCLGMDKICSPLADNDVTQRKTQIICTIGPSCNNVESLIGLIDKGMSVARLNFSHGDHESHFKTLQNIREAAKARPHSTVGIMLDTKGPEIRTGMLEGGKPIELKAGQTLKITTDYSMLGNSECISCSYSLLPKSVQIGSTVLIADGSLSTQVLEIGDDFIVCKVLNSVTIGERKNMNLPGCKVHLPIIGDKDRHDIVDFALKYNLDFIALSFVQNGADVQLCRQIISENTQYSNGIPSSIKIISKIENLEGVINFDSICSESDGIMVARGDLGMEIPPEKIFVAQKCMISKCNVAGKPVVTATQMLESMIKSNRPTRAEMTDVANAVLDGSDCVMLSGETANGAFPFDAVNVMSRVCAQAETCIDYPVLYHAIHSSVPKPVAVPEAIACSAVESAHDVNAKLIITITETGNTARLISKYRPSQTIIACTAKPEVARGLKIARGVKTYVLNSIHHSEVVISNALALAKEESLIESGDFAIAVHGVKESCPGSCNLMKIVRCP

Turning to `c1ccc(-c2nnc(-c3ccccn3)[nH]2)nc1` [NSC234945, 2-(3-pyridin-2-yl-1H-1,2,4-triazol-5-yl)pyridine], in data set [1], the IC50 is 235 µM. This molecule yielded a CC50 at 24 h in data set [2] of 432 µM. Also, in data set [3], the “toxicity signs in uninfected mice” value is “did not induce any toxicity signs”.
As for `CCOc1ccc(/C=C2\CCc3ccccc3C2=O)cc1` [NSC252172, (2E)-2-[(4-ethoxyphenyl)methylidene]-3,4-dihydronaphthalen-1-one], in data set [1] (setting [4]), the IC50 was found to be 123 µM. In data set [2], this molecule yielded a CC50 at 24 h of 266 µM. The “toxicity signs in uninfected mice” value in data set [3] is listed as “did not induce any toxicity signs”.
Turning to `Cc1cc2c(c(C#N)c1C)NC=NC2C` (stereo not drawn) [NSC303244, 4,6,7-trimethyl-1,4-dihydroquinazoline-8-carbonitrile], in data set [1] (setting [4]), the IC50 is 243 µM. Further, it took 660 µM to reach half-maximal cytotoxicity in data set [2] (CC50 at 24 h). For the same molecule, in data set [3], the “toxicity signs in uninfected mice” value was “did not induce any toxicity signs”.
On to `N#C/C(=C\c1cc(O)c(O)c(O)c1)C(N)=O` [NSC638080, (E)-2-cyano-3-(3,4,5-trihydroxyphenyl)prop-2-enamide], for which, in data set [1] (setting [4]), the half-inhibitory concentration (IC50) was 97.1 µM. In data set [2], this molecule gave a CC50 at 24 h of 750 µM. In addition, the “toxicity signs in uninfected mice” value in data set [3] is given as “did not induce any toxicity signs”.
